# Reference: patent US20100041642A1, “UREA INHIBITORS OF MAP KINASES” (LOCUS PHARMACEUTICALS, INC., priority 2008, published 2010)
# Molecular target: p38 (Homo sapiens, UniProt Q16539)
# Experiment: Protein Kinase Assay (33P incorporation from γ-[33P]ATP into GST-ATF-2)
# Format: biochemical
# Conditions: 2 nM p38, preincubated 20 min at 30° C.; 10 uM cold ATP, 2 uM GST-ATF2, 70 min; read-out: ACT. (Activity), IC50 category in Protein Kinase Assay
# Outline: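 Compounds preincubated 20 min at 30 °C with 2 nM p38; reaction started with 2 uM GST-ATF-2 (aa 19-96) and 10 uM ATP plus γ-[33P]ATP, pH 7.5, 70 min at 30 °C, 2% DMSO. Phosphoric acid stop; 33P-labelled substrate captured on phosphocellulose and counted by scintillation.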
# Sequence of p38 (Q16539 whole entry): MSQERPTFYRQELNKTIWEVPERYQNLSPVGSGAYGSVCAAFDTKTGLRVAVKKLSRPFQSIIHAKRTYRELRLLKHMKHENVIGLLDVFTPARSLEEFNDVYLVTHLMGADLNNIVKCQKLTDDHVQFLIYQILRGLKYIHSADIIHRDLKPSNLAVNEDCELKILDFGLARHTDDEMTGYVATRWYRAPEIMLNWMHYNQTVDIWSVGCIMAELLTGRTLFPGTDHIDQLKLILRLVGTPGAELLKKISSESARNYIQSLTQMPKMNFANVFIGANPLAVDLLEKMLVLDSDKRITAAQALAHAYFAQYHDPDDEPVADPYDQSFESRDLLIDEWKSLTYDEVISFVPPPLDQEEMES
row,IC50 [nM],SMILES
1,< 100,"CN(C)CCOc1ccc(-c2cccc(NC(=O)Nc3sc(C(C)(C)C)cc3C(=O)N3CCNC(=O)C3(C)C)c2)cn1 [1-(5-tert-butyl-3-(2,2-dimethyl-3-oxopiperazine-1-carbonyl)thiophen-2-yl)-3-(3-(6-(2-(dimethylamino)ethoxy)pyridin-3-yl)phenyl)urea]"
2,< 100,"CC(C)(C)c1cc(C(=O)N2CCNC(=O)C2(C)C)c(NC(=O)Nc2cccc(-c3ccc(OCCN4CCOCC4)nc3)c2)s1 [1-(5-tert-butyl-3-(2,2-dimethyl-3-oxopiperazine-1-carbonyl)thiophen-2-yl)-3-(3-(6-(2-morpholinoethoxy)pyridin-3-yl)phenyl)urea]"
3,< 100,"CN1CCN(CCCOc2ccc(-c3cccc(NC(=O)Nc4sc(C(C)(C)C)cc4C(=O)N4CCNC(=O)C4(C)C)c3)cn2)CC1 [1-(5-tert-butyl-3-(2,2-dimethyl-3-oxopiperazine-1-carbonyl)thiophen-2-yl)-3-(3-(6-(3-(4-methylpiperazin-1-yl)propoxy)pyridin-3-yl)phenyl)urea]"
4,< 100,"Cc1ccc(NC(=O)Nc2sc(C(C)(C)C)cc2C(=O)N2CCNC(=O)C2(C)C)cc1-c1ccc(OCCCN(C)C)nc1 [1-(5-tert-butyl-3-(2,2-dimethyl-3-oxopiperazine-1-carbonyl)thiophen-2-yl)-3-(3-(6-(3-(dimethylamino)propoxy)pyridin-3-yl)-4-methylphenyl)urea]"
5,< 100,"CN(C)CCCOc1ccc(-c2cccc(NC(=O)Nc3sc(C(C)(C)C)cc3C(=O)N3CCNC(=O)C3(C)C)c2)cn1 [1-(5-tert-butyl-3-(2,2-dimethyl-3-oxopiperazine-1-carbonyl)thiophen-2-yl)-3-(3-(6-(3-(dimethylamino)propoxy)pyridin-3-yl)phenyl)urea]"
6,< 100,"Cc1ccc(NC(=O)Nc2sc(C(C)(C)C)cc2C(=O)N2CCNC(=O)C2(C)C)cc1-c1ccc(N2CCC(N(C)C)C2)nc1 (stereo not drawn) [1-(5-tert-butyl-3-(2,2-dimethyl-3-oxopiperazine-1-carbonyl)thiophen-2-yl)-3-(3-(6-(3-(dimethylamino)pyrrolidin-1-yl)pyridin-3-yl)-4-methylphenyl)urea]"
7,< 100,"CC(C)(C)c1cc(C(=O)N2CCNC(=O)C2(C)C)c(NC(=O)Nc2cccc(-c3ccc(OCCCc4ccccn4)nc3)c2)s1 [1-(5-tert-butyl-3-(2,2-dimethyl-3-oxopiperazine-1-carbonyl)thiophen-2-yl)-3-(3-(6-(3-(pyridin-2-yl)propoxy)pyridin-3-yl)phenyl)urea]"
8,< 100,"CC(C)(C)c1cc(C(=O)N2CCNC(=O)C2(C)C)c(NC(=O)Nc2cccc(-c3ccc(OCCCN4CCOCC4)nc3)c2)s1 [1-(5-tert-butyl-3-(2,2-dimethyl-3-oxopiperazine-1-carbonyl)thiophen-2-yl)-3-(3-(6-(3-morpholinopropoxy)pyridin-3-yl)phenyl)urea]"
9,< 100,"Cc1ccc(NC(=O)Nc2sc(C(C)(C)C)cc2C(=O)N2CCNC(=O)C2(C)C)cc1-c1ccc(N(C)C)nc1 [1-(5-tert-butyl-3-(2,2-dimethyl-3-oxopiperazine-1-carbonyl)thiophen-2-yl)-3-(3-(6-(dimethylamino)pyridin-3-yl)-4-methylphenyl)urea]"
10,< 100,"Cc1ccc(NC(=O)Nc2sc(C(C)(C)C)cc2C(=O)N2CCNC(=O)C2(C)C)cc1-c1ccc(NCC(C)C)nc1 [1-(5-tert-butyl-3-(2,2-dimethyl-3-oxopiperazine-1-carbonyl)thiophen-2-yl)-3-(3-(6-(isobutylamino)pyridin-3-yl)-4-methylphenyl)urea]"
11,< 100,"CC(=O)c1ccc(-c2cc(NC(=O)Nc3sc(C(C)(C)C)cc3C(=O)N3CCNC(=O)C3(C)C)ccc2C)cn1 [1-(5-tert-butyl-3-(2,2-dimethyl-3-oxopiperazine-1-carbonyl)thiophen-2-yl)-3-(3-(6-ethanoylpyridin-3-yl)-4-methylphenyl)urea]"
12,< 100,"CCc1ccc(-c2cc(NC(=O)Nc3sc(C(C)(C)C)cc3C(=O)N3CCNC(=O)C3(C)C)ccc2C)cn1 [1-(5-tert-butyl-3-(2,2-dimethyl-3-oxopiperazine-1-carbonyl)thiophen-2-yl)-3-(3-(6-ethylpyridin-3-yl)-4-methylphenyl)urea]"
13,< 100,"CCc1ccc(-c2cc(NC(=O)Nc3sc(C(C)(C)C)cc3C(=O)N3CCNC(=O)C3(C)C)cc(F)c2C)cn1 [1-(5-tert-butyl-3-(2,2-dimethyl-3-oxopiperazine-1-carbonyl)thiophen-2-yl)-3-(3-(6-ethylpyridin-3-yl)-5-fluoro-4-methylphenyl)urea]"
14,< 100,"C#Cc1ccc(-c2cc(NC(=O)Nc3sc(C(C)(C)C)cc3C(=O)N3CCNC(=O)C3(C)C)ccc2C)cn1 [1-(5-tert-butyl-3-(2,2-dimethyl-3-oxopiperazine-1-carbonyl)thiophen-2-yl)-3-(3-(6-ethynylpyridin-3-yl)-4-methylphenyl)urea]"
15,< 100,"Cc1ccc(NC(=O)Nc2sc(C(C)(C)C)cc2C(=O)N2CCNC(=O)C2(C)C)cc1-c1ccc(F)nc1 [1-(5-tert-butyl-3-(2,2-dimethyl-3-oxopiperazine-1-carbonyl)thiophen-2-yl)-3-(3-(6-fluoropyridin-3-yl)-4-methylphenyl)urea]"
16,< 100,"Cc1ccc(NC(=O)Nc2sc(C(C)(C)C)cc2C(=O)N2CCNC(=O)C2(C)C)cc1-c1ccc(C(C)C)nc1 [1-(5-tert-butyl-3-(2,2-dimethyl-3-oxopiperazine-1-carbonyl)thiophen-2-yl)-3-(3-(6-isopropylpyridin-3-yl)-4-methylphenyl)urea]"
17,< 100,"COc1ccc(-c2cc(NC(=O)Nc3sc(C(C)(C)C)cc3C(=O)N3CCNC(=O)C3(C)C)ccc2C)cn1 [1-(5-tert-butyl-3-(2,2-dimethyl-3-oxopiperazine-1-carbonyl)thiophen-2-yl)-3-(3-(6-methoxypyridin-3-yl)-4-methylphenyl)urea]"
18,< 100,"COc1ccc(-c2cc(C)cc(NC(=O)Nc3sc(C(C)(C)C)cc3C(=O)N3CCNC(=O)C3(C)C)c2)cn1 [1-(5-tert-butyl-3-(2,2-dimethyl-3-oxopiperazine-1-carbonyl)thiophen-2-yl)-3-(3-(6-methoxypyridin-3-yl)-5-methylphenyl)urea]"
19,< 100,"CC(C)(C)c1cc(C(=O)N2CCNC(=O)C2(C)C)c(NC(=O)Nc2cccc(-c3cnco3)c2)s1 [1-(5-tert-butyl-3-(2,2-dimethyl-3-oxopiperazine-1-carbonyl)thiophen-2-yl)-3-(3-(oxazol-5-yl)phenyl)urea]"
20,< 100,"CC(C)(C)c1cc(C(=O)N2CCNC(=O)C2(C)C)c(NC(=O)Nc2cccc(-c3cccnc3)c2)s1 [1-(5-tert-butyl-3-(2,2-dimethyl-3-oxopiperazine-1-carbonyl)thiophen-2-yl)-3-(3-(pyridin-3-yl)phenyl)urea]"
21,< 100,"CC(C)(C)c1cc(C(=O)N2CCNC(=O)C2(C)C)c(NC(=O)Nc2cccc(-c3ccncc3)c2)s1 [1-(5-tert-butyl-3-(2,2-dimethyl-3-oxopiperazine-1-carbonyl)thiophen-2-yl)-3-(3-(pyridin-4-yl)phenyl)urea]"
22,< 100,"Cc1ccc(NC(=O)Nc2sc(C(C)(C)C)cc2C(=O)N2CCNC(=O)C2(C)C)cc1C#N [1-(5-tert-butyl-3-(2,2-dimethyl-3-oxopiperazine-1-carbonyl)thiophen-2-yl)-3-(3-cyano-4-methylphenyl)urea]"
23,< 100,"C#Cc1cc(NC(=O)Nc2sc(C(C)(C)C)cc2C(=O)N2CCNC(=O)C2(C)C)ccc1C [1-(5-tert-butyl-3-(2,2-dimethyl-3-oxopiperazine-1-carbonyl)thiophen-2-yl)-3-(3-ethynyl-4-methylphenyl)urea]"
24,< 100,"COc1ccc(-c2cc(NC(=O)Nc3sc(C(C)(C)C)cc3C(=O)N3CCNC(=O)C3(C)C)cc(F)c2C)cn1 [1-(5-tert-butyl-3-(2,2-dimethyl-3-oxopiperazine-1-carbonyl)thiophen-2-yl)-3-(3-fluoro-5-(6-methoxypyridin-3-yl)-4-methylphenyl)urea]"
25,< 10000,"CC(C)(C)c1cc(C(=O)N2CCNC(=O)C2(C)C)c(NC(=O)Nc2cccc(N3CCOCC3)c2)s1 [1-(5-tert-butyl-3-(2,2-dimethyl-3-oxopiperazine-1-carbonyl)thiophen-2-yl)-3-(3-morpholinophenyl)urea]"
26,< 100,"CC(C)(C)c1cc(C(=O)N2CCNC(=O)C2(C)C)c(NC(=O)Nc2ccc(F)c(-c3ccc(OCCN4CCOCC4)nc3)c2)s1 [1-(5-tert-butyl-3-(2,2-dimethyl-3-oxopiperazine-1-carbonyl)thiophen-2-yl)-3-(4-fluoro-3-(6-(2-morpholinoethoxy)pyridin-3-yl)phenyl)urea]"
27,< 100,"COc1ccc(NC(=O)Nc2sc(C(C)(C)C)cc2C(=O)N2CCNC(=O)C2(C)C)c(C)c1-c1ccncc1 [1-(5-tert-butyl-3-(2,2-dimethyl-3-oxopiperazine-1-carbonyl)thiophen-2-yl)-3-(4-methoxy-2-methyl-3-(pyridin-4-yl)phenyl)urea]"
28,< 100,"COc1ccc(NC(=O)Nc2sc(C(C)(C)C)cc2C(=O)N2CCNC(=O)C2(C)C)cc1-c1ccncc1 [1-(5-tert-butyl-3-(2,2-dimethyl-3-oxopiperazine-1-carbonyl)thiophen-2-yl)-3-(4-methoxy-3-(pyridin-4-yl)phenyl)urea]"
29,< 100,"Cc1ccc(NC(=O)Nc2sc(C(C)(C)C)cc2C(=O)N2CCNC(=O)C2(C)C)cc1C#C[Si](C)(C)C [1-(5-tert-butyl-3-(2,2-dimethyl-3-oxopiperazine-1-carbonyl)thiophen-2-yl)-3-(4-methyl-3-(2-(trimethylsilyl)ethynyl)phenyl)urea]"
30,< 100,"Cc1ccc(NC(=O)Nc2sc(C(C)(C)C)cc2C(=O)N2CCNC(=O)C2(C)C)cc1-c1cnc(N2CCOCC2)nc1 [1-(5-tert-butyl-3-(2,2-dimethyl-3-oxopiperazine-1-carbonyl)thiophen-2-yl)-3-(4-methyl-3-(2-morpholinopyrimidin-5-yl)phenyl)urea]"
